What all share (assay type): cell-based
In assay [1] the test system is estrogen receptor reporter gene. In words: Inhibition of estrogen receptor reporter gene activity (ERE-luc luciferase) in MCF7/ERE-luc cells. As to conditions: Homo sapiens, 0.1 nM β-estradiol, 20 hours, read-out: IC50 of inhibitory activity on the activity of the estrogen receptor reporter gene. The protocol:
MCF7 cells MCF7/ERE-luc (ATCC, HTB-22) expressing the luciferase reporter gene ERE-luc (synthesized by GENEWIZ, Inc.) controlled by the estrogen receptor response element were cultured in MEM (GE Healthcare, SH30024.01) medium containing 10% fetal bovine serum and 500 µg/ml G418. On the first day of the experiment, MCF7/ERE-luc cells were seeded in a 96-well plate with incomplete MEM medium containing 10% fetal bovine serum treated with activated charcoal (BioSun, BS-0004-500) at a density of 30,000 cells/well (100 μl of cell suspension per well), and the plate was incubated in a cell incubator at 37° C. and 5% CO2 overnight. On the second day, 10 μl of β-estradiol (SIGMA, E2758-250MG) solution formulated with the above incomplete medium or test compound solution of different concentrations formulated with the above incomplete medium was added to each well, wherein the final concentration of β-estradiol was 0.1 nM, and the final concentrations of the compound were nine concentration points obtained by a 10-fold gradient dilution starting from 10 μM, a blank control containing 0.5% DMSO was set, and the plate was incubated in a cell incubator at 37° C. and 5% CO2 for 20 hours. On the third day, the 96-well plate was taken out, and 100 μl of ONE-Glo™ Luciferase Assay system (Promega, E6110) was added to each well to determine the activity of luciferase. The plate was left to stand at room temperature for 3 minutes until the cells were fully lysed, and the luminescence signal values were measured using a multi-label microplate reader (PerkinElmer, VICTOR 3). The IC50 values of the inhibitory activity of the compounds were calculated using Graphpad Prism software based on the concentrations and luminescence signal values of the compounds.
The inhibitory effect of the compounds of the present disclosure on the activity of the estrogen receptor reporter gene was determined by the above test. A graph of the chemiluminescence signal values versus the logarithmic concentrations of the compound was made using Graghpad Prism.

The next assay has as its system MCF7 cell. In words: Inhibition of proliferation of MCF7 cell (CellTiter-Glo, 144 hours). As to conditions: Homo sapiens; for IC50: MCF7, CellTiter-Glo, read-out: IC50 of the inhibitory effect on the proliferation of MCF7 cell; for Emax: MCF7 cell proliferation, read-out: Maximum inhibition. The protocol: (§1) MCF7 cells (ATCC, HTB-22) were cultured in MEM (GE Healthcare, SH30024.01) complete medium containing 10% fetal bovine serum. On the first day of the experiment, MCF7 cells were seeded in a 96-well plate with the complete medium at a density of 3,000 cells/well (100 μl of cell suspension per well), and the plate was incubated in a cell incubator at 37° C. and 5% CO2 overnight. On the second day, the medium in each well was replaced with 135 μl of MEM incomplete medium containing 2% fetal bovine serum. 15 μl of test compound solution of different concentrations formulated with the incomplete medium was added to each well, wherein the final concentrations of the compound were nine concentration points obtained by a 4-fold gradient dilution starting from 100 nM. A blank control containing 0.5% DMSO was set. The plate was incubated in a cell incubator at 37° C. and 5% CO2 for 144 hours. On the eighth day, the 96-well plate was taken out, and 150 μl of CellTiter-Glo® Luminescent Cell Viability Assay (Promega, G7573) was added to each well. The plate was left to stand at room temperature for 10 minutes, and the luminescence signal values were measured using a multi-label microplate reader (PerkinElmer, VICTOR 3). The IC50 values of the inhibitory activity of the compounds were calculated based on the concentrations and luminescence signal values of the compounds using Graphpad Prism software.
A graph of the chemiluminescence signal values versus the logarithmic concentrations of the compound was made using Graghpad Prism to obtain the IC50 values of the compound.

In a further assay the test system is MCF7 D538G. In words: Inhibition of proliferation of MCF7 cell expressing ERα D538G mutant. As to conditions: Homo sapiens, 144 hours; for Emax: read-out: Maximum inhibition.
Source text: (§2) The mutants ERα Y537S and ERα D538G of human estrogen receptor α (ERαs) protein were obtained by site-directed mutagenesis using the cDNA of wild-type ESR1 gene (Accession No. NM000125) as a template according to double-primer PCR. The primer sequences used for mutagenesis are as follows (the nucleotides underlined are the sites of mutagenesis):
(§3) The cDNA of mutant ESR1 was cloned into the target lentiviral vector pCDH-CMV-MCS-EF1-Puro (SBI, CD510B-1). The lentiviral plasmid with the mutant ESR1 gene sequence and the lentiviral packaging plasmids pVSV-G and pCMV-dR8.91 (SBI, LV500A-1) were transfected into HEK-293T cells (ATCC, CRL-3216) by Lipofectamine 3000 Transfection Reagent (ThermoFisher Scientific, Cat #L3000075). 48 hours after the transfection, the supernatant of the virus-containing DMEM high-glycemic medium (GE Healthcare, SH30243.01) containing 10% FBS was filtered, and ultracentrifuged to obtain the virus pellet. The virus pellet was resuspended in an appropriate amount of MEM medium (GE Healthcare, SH30024.01) containing 10% FBS, non-essential amino acids (SIGMA, M7145-100ML) and sodium pyruvate (SIGMA, S8636-100ML), and the resulting suspension was added to MCF7 cells (ATCC, HTB-22). Polybrene (SIGMA, H9268-5G) at a final concentration of 8 µg/ml was added, and the cells were incubated overnight. Two days after the transfection, […] puromycin (invitrogen, A11138-03) was added to the cell culture medium for resistance screening. After about two weeks, the MCF7 cell line capable of stably expressing ERαY537S and ERα D538G mutants was obtained.
as §1, with “MCF7 cells expressing ERα mutant were cultured” for “MCF7 cells (ATCC, HTB-22) were cultured”, “the experiment, the cells were” for “the experiment, MCF7 cells were”, “control containing 0.500 DMSO was” for “control containing 0.5% DMSO was”, “C. and […] for” for “C. and 5% CO2 for”, “and 150 of CellTiter-Glo®” for “and 150 μl of CellTiter-Glo®”

For another assay, the system named is MCF7 ERαY537S. In words: Inhibition of proliferation of MCF7 cell expressing ERα Y537S mutant. As to conditions: Homo sapiens, 144 hours; for Emax: read-out: Maximum inhibition.
Source text: as §2, §3
as §1, with “MCF7 cells expressing ERα mutant were cultured” for “MCF7 cells (ATCC, HTB-22) were cultured”, “the experiment, the cells were” for “the experiment, MCF7 cells were”, “control containing 0.500 DMSO was” for “control containing 0.5% DMSO was”, “C. and […] for” for “C. and 5% CO2 for”, “and 150 of CellTiter-Glo®” for “and 150 μl of CellTiter-Glo®”

In the case of `O=C(/C=C/CNC1(COc2ccc(/C(=C(/CC(F)(F)F)c3ccccc3)c3ccc4[nH]nc(F)c4c3)cn2)CC1)N1CCCCC1` [Example 3, (E)-1-(Piperidin-1-yl)-4-((1-(((5-((Z)-4,4,4-trifluoro-1-(3-fluoro-1H-indazol-5-yl)-2-phenylbut-1-en-1-yl)pyridin-2-yl)oxy)methyl)cyclopropyl)amino)but-2-en-1-one], the IC50 in assay [1] worked out at 4 nM; in the assay with MCF7 cell it was 2 nM; in the assay with MCF7 D538G, 9 nM; in the assay on MCF7 ERαY537S, 9 nM. Further, the Emax came out at 101% with MCF7 cell, 96% in the assay with MCF7 D538G and 93% with MCF7 ERαY537S.
For `O=C(/C=C/CNC1(COc2ccc(/C(=C(/CC(F)(F)F)c3ccccc3)c3ccc4[nH]nc(F)c4c3)cn2)CC1)N1CCNCC1` [Example 4, (E)-1-(Piperazin-1-yl)-4-((1-(((5-((Z)-4,4,4-trifluoro-1-(3-fluoro-1H-indazol-5-yl)-2-phenylbut-1-en-1-yl)pyridin-2-yl)oxy)methyl)cyclopropyl)amino)but-2-en-1-one], the IC50 in assay [1] came to 4 nM; in the assay with MCF7 cell, 1.5 nM; in the assay with MCF7 D538G, 10 nM; in the assay with MCF7 ERαY537S it was 11 nM. The Emax with MCF7 cell is 113%; in the assay with MCF7 D538G it was 105%; with MCF7 ERαY537S it was 101%.
For the compound `CN(C)C(=O)/C=C/CN(C)C1(COc2ccc(/C(=C(/CC(F)(F)F)c3ccccc3)c3ccc4[nH]nc(F)c4c3)cn2)CC1` [Example 5, (E)-N,N-Dimethyl-4-(methyl(1-(((5-((Z)-4,4,4-trifluoro-1-(3-fluoro-1H-indazol-5-yl)-2-phenylbut-1-en-1-yl)pyridin-2-yl)oxy)methyl)cyclopropyl)amino)but-2-enamide], the IC50 in assay [1] was 3 nM; in the assay on MCF7 cell, 0.1 nM; in the assay on MCF7 D538G, 0.2 nM; in the assay on MCF7 ERαY537S, 0.3 nM. The Emax in the assay on MCF7 cell amounted to 96%; in the assay on MCF7 D538G, 98%; in the assay on MCF7 ERαY537S it was 107%.
As to `CCN(C/C=C/C(=O)N(C)C)C1(COc2ccc(/C(=C(/CC(F)(F)F)c3ccccc3)c3ccc4[nH]nc(F)c4c3)cn2)CC1` [Example 6, (E)-4-(Ethyl(1-(((5-((Z)-4,4,4-trifluoro-1-(3-fluoro-1H-indazol-5-yl)-2-phenylbut-1-en-1-yl)pyridin-2-yl)oxy)methyl)cyclopropyl)amino)-N,N-dimethylbut-2-enamide], the IC50 in assay [1] came to 0.5 nM; in the assay with MCF7 cell, 0.15 nM; in the assay with MCF7 D538G, 0.5 nM; in the assay on MCF7 ERαY537S it was 1 nM. In addition, the Emax in the assay on MCF7 cell was determined as 94%; in the assay with MCF7 D538G, 98%; with MCF7 ERαY537S, 102%.
`CN(C)C(=O)/C=C/CNC1(COc2ccc(/C(=C(/CC(F)(F)F)c3ccccc3)c3ccc4[nH]nc(F)c4c3)cn2)CCCC1` [Example 7, (E)-N,N-Dimethyl-4-((1-(((5-((Z)-4,4,4-trifluoro-1-(3-fluoro-1H-indazol-5-yl)-2-phenylbut-1-en-1-yl)pyridin-2-yl)oxy)methyl)cyclopentyl)amino)but-2-enamide]: the IC50 is 38 nM in assay [1], 2 nM in the assay with MCF7 cell, 12 nM in the assay with MCF7 D538G and 12 nM in the assay on MCF7 ERαY537S. For the same compound, the Emax with MCF7 cell came out at 102%; with MCF7 D538G, 84%; with MCF7 ERαY537S, 88%.
For `CNC(=O)c1ccc(/C(CC(F)(F)F)=C(\c2ccc(O[C@@H]3CCCN(C/C=C/C(=O)N(C)C)C3)nc2)c2ccc3[nH]nc(F)c3c2)cc1` [Example 21, 4-((Z)-1-(6-(((R)-1-((E)-4-(Dimethylamino)-4-oxobut-2-en-1-yl)piperidin-3-yl)oxy)pyridin-3-yl)-4,4,4-trifluoro-1-(3-fluoro-1H-indazol-5-yl)but-1-en-2-yl)-N-methylbenzamide], in the assay with MCF7 cell, the IC50 turned out to be 45 nM and the Emax is 90%.
On to `CN(C)C(=O)/C=C/CN1CCC[C@H](Oc2ccc(/C(=C(/CC(F)(F)F)c3ccccc3)c3ccc4[nH]nc(F)c4c3)cn2)C1` [Example 27, (E)-N,N-Dimethyl-4-((S)-3-((5-((Z)-4,4,4-trifluoro-1-(3-fluoro-1H-indazol-5-yl)-2-phenylbut-1-en-1-yl)pyridin-2-yl)oxy)piperidin-1-yl)but-2-enamide], for which, in assay [1], the IC50 was found to be 7 nM. In the assay with MCF7 cell, the IC50 was 0.3 nM and the Emax stood at 86%.
For `C=CC(=O)N1CCC(Oc2ccc(/C(=C(/CC(F)(F)F)c3ccccc3)c3ccc4[nH]nc(F)c4c3)cn2)CC1` [Example 28, (Z)-1-(4-((5-(4,4,4-Trifluoro-1-(3-fluoro-1H-indazol-5-yl)-2-phenylbut-1-en-1-yl)pyridin-2-yl)oxy)piperidin-1-yl)prop-2-en-1-one], the IC50 in assay [1] was 4 nM; in the assay on MCF7 cell, 0.1 nM. The Emax in the assay with MCF7 cell is 90%.
Taken in the same sequence, the figures for `CN(C)C(=O)/C=C/CN1CC[C@H](Oc2ccc(/C(=C(/CC(F)(F)F)c3ccccc3)c3ccc4[nH]nc(F)c4c3)cn2)C1` [Example 30, (E)-N,N-Dimethyl-4-((S)-3-((5-((Z)-4,4,4-trifluoro-1-(3-fluoro-1H-indazol-5-yl)-2-phenylbut-1-en-1-yl)pyridin-2-yl)oxy)pyrrolidin-1-yl)but-2-enamide] were 3 nM, 0.2 nM and 93%.
